ChEMBL document CHEMBL5375956, “Discovery of Pyrazolo[1,5-a]pyrimidine Derivative as a Novel and Selective ALKBH5 Inhibitor for the Treatment of AML” (J Med Chem, 2023)
The source made the active and inactive calls. The rule behind the calls is not given here.

Columns and labels:
MOLM-13 [1] = assay: Induction of apoptosis in human MOLM-13 cells assessed as viable cells at 5 uM incubated for 48 hrs by Annexin V-FITC/PI staining based flow cytometry (reference value: 89.8 %); assay type: functional; conditions: read-out: Activity
[2] = molecular target: T1, Alpha-ketoglutarate-dependent dioxygenase FTO (Homo sapiens, UniProt Q9C0B1); assay: Binding affinity to NT-647-NHS fluorescent dye-labeled FTO (32 to 505 residues)(unknown origin) expressed in Escherichia coli BL21(DE3) using m6A-ssDNA as substrate incubated for 15 mins by MST assay
Target sequence in this assay (Q9C0B1 whole entry, looked up, the tested form may be a part): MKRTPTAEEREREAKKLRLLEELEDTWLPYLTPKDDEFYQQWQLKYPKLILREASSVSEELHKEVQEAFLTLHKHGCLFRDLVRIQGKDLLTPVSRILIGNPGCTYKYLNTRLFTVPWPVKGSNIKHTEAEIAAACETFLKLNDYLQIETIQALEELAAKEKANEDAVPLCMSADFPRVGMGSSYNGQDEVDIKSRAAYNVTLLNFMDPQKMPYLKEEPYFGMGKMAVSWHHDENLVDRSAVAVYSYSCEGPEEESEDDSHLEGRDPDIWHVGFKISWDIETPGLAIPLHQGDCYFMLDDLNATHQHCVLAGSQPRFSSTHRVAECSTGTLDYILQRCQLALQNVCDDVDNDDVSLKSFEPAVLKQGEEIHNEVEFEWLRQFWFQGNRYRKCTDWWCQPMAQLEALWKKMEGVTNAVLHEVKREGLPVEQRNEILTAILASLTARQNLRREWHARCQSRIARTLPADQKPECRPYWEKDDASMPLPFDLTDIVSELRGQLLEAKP

RNA demethylase ALKBH5 [3] = molecular target: T2, RNA demethylase ALKBH5 (Homo sapiens, UniProt Q6P6C2); assay: Inhibition of ALKBH5 (66 to 292 residues)(unknown origin) expressed in Escherichia coli BL21(DE3) using 5'-ATTGTCA(m6A)CAGCAGA-FAM-3' as substrate incubated for 30 mins in presence of 0.2 uM of 2-OG by FP based competitive binding assay
Target sequence in this assay (Q6P6C2 whole entry, the tested form may be a part): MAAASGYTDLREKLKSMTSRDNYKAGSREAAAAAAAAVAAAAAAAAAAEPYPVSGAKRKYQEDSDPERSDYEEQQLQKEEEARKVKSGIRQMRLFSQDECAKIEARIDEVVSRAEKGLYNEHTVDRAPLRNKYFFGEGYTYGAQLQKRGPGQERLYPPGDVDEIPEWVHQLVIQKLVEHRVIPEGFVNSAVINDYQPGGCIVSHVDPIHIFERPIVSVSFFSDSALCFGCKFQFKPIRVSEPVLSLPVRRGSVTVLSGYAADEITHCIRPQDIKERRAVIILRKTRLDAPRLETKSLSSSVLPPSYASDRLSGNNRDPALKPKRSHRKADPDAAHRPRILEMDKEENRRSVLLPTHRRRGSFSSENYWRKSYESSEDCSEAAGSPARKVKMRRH

MV4-11 [4] = assay: Induction of apoptosis in human MV4-11 cells assessed as early apoptosis cells at 10 uM incubated for 48 hrs by Annexin V-FITC/PI staining based flow cytometry (reference value: 1.24 %); assay type: functional
MOLM-13 [5] = assay: Induction of apoptosis in human MOLM-13 cells assessed as early apoptosis cells at 5 uM incubated for 48 hrs by Annexin V-FITC/PI staining based flow cytometry (reference value: 2.72 %); assay type: functional
[6] = Toxicity in nude mouse xenografted with human MV4-11 cells assessed as lung weight change at 10 to 40 mg/kg, ip treated every day for 14 days; assay type: organism-based; conditions: in vivo, 336 h, dose 10-40 mg/kg, time 14 day
[7] = Toxicity in nude mouse xenografted with human MV4-11 cells assessed as lung damage at 10 to 40 mg/kg, ip treated every day for 14 days by H and E staining based analysis; assay type: organism-based; conditions: in vivo, 336 h, dose 10-40 mg/kg, time 14 day
[8] = Oral bioavailability in Sprague-Dawley rat at 10 mg/kg measured for 1 to 1440 mins by LC-MS/MS analysis; assay type: ADME, organism-based; conditions: in vivo, time 1-1440 min
[9] = AUC (0 to infinity) in Sprague-Dawley rat at 10 mg/kg, po measured for 1 to 1440 mins by LC-MS/MS analysis; assay type: ADME, organism-based; conditions: in vivo
HEK293 [10] = assay: Antiproliferative activity against HEK293 cells assessed as inhibition of cell proliferation incubated for 72 hrs by Cell Titer Luminescence assay; assay type: functional, cell-based; conditions: Homo sapiens, HEK293, 72 h
[11] = Apparent volume of distribution during terminal phase in Sprague-Dawley rat at 2 mg/kg, iv measured for 1 to 1440 mins by LC-MS/MS analysis; assay type: ADME, organism-based; conditions: in vivo, time 1-1440 min
MV4-11 [12] = assay: Downregulation of TACC3 mRNA level in human MV4-11 cells at 5 to 10 uM incubated for 48 hrs by qRT-PCR analysis; assay type: functional, cell-based; conditions: dose 5-10 µM
MV4-11 [13] = assay: Downregulation of TACC3 level in human MV4-11 cells upto 10 uM incubated for 48 hrs by Western blot analysis; assay type: functional, cell-based
[14] = Metabolic stability in human liver microsomes assessed as clearance measured upto 240 mins by LC-MS/MS analysis; assay type: ADME, Microsome; conditions: read-out: CLH
RNA demethylase ALKBH5 [15] = molecular target: T2, RNA demethylase ALKBH5; assay: Inhibition of ALKBH5 (66 to 292 residues)(unknown origin) expressed in Escherichia coli BL21(DE3) using 5'-ATTGTCA(m6A)CAGCAGA-FAM-3' as substrate incubated for 30 mins in presence of 200 uM of 2-OG by FP based competitive binding assay
Target sequence in this assay (Q6P6C2 whole entry, the tested form may be a part): as above

HUVEC [16] = assay: Effect on TACC3 level in HUVEC cells upto 10 uM incubated for 48 hrs by Western blot analysis; assay type: functional, cell-based; conditions: Homo sapiens
MOLM-13 [17] = assay: Induction of apoptosis in human MOLM-13 cells assessed as late apoptosis cells at 5 uM incubated for 48 hrs by Annexin V-FITC/PI staining based flow cytometry (reference value: 6.49 %); assay type: functional
[18] = Tmax in Sprague-Dawley rat at 10 mg/kg, po measured for 1 to 1440 mins by LC-MS/MS analysis; assay type: ADME, organism-based; conditions: in vivo, time 1-1440 min
[19] = Toxicity in nude mouse xenografted with human MV4-11 cells assessed as liver damage at 10 to 40 mg/kg, ip treated every day for 14 days by H and E staining based analysis; assay type: organism-based; conditions: in vivo, 336 h, dose 10-40 mg/kg, time 14 day
[20] = Metabolic stability in rat plasma assessed as half life measured upto 240 mins by LC-MS/MS analysis; assay type: ADME, cell-free
MV4-11 [21] = assay: Downregulation of c-Myc level in human MV4-11 cells upto 10 uM incubated for 48 hrs by Western blot analysis; assay type: functional, cell-based
MOLM-13 [22] = assay: Induction of apoptosis in human MOLM-13 cells assessed as necrotic cells at 5 uM incubated for 48 hrs by Annexin V-FITC/PI staining based flow cytometry (reference value: 1.00 %); assay type: functional
[23] = Toxicity in nude mouse xenografted with human MV4-11 cells assessed as liver weight change at 10 to 40 mg/kg, ip treated every day for 14 days; assay type: organism-based; conditions: in vivo, 336 h, dose 10-40 mg/kg, time 14 day
[24] = Toxicity in nude mouse xenografted with human MV4-11 cells assessed as spleen damage at 10 to 40 mg/kg, ip treated every day for 14 days by H and E staining based analysis; assay type: organism-based; conditions: in vivo, 336 h, dose 10-40 mg/kg, time 14 day
RNA demethylase ALKBH5 [25] = molecular target: T2, RNA demethylase ALKBH5; assay: Inhibition of ALKBH5 in human MV4-11 cells assessed as increase in m6A mRNA methylation level at 20 uM incubated for 48 hrs by LC-MS/MS analysis; assay type: cell-based
Target sequence in this assay (Q6P6C2 2-394 limits assumed): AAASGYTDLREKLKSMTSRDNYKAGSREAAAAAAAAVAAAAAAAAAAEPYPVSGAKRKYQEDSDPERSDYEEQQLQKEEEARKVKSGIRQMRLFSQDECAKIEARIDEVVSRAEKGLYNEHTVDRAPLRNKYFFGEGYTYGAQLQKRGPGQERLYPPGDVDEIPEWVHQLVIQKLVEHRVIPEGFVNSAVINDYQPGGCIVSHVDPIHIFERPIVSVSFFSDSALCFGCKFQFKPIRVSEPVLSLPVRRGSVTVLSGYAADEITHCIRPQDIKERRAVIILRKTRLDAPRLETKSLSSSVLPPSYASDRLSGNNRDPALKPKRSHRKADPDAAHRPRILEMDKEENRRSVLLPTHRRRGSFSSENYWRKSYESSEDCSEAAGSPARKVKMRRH

MOLM-13 [26] = assay: Induction of apoptosis in human MOLM-13 cells assessed as late apoptosis cells at 10 uM incubated for 48 hrs by Annexin V-FITC/PI staining based flow cytometry (reference value: 6.49 %); assay type: functional
HEK293 [27] = assay: Effect on c-Myc level in HEK293 cells upto 10 uM incubated for 48 hrs by Western blot analysis; assay type: functional, cell-based; conditions: Homo sapiens
MOLM-13 [28] = assay: Induction of apoptosis in human MOLM-13 cells assessed as necrotic cells at 10 uM incubated for 48 hrs by Annexin V-FITC/PI staining based flow cytometry (reference value: 1.00 %); assay type: functional
[29] = molecular target: T1, Alpha-ketoglutarate-dependent dioxygenase FTO; assay: Inhibition of FTO (32 to 505 residues)(unknown origin) expressed in Escherichia coli BL21(DE3) by FP assay
Target sequence in this assay (Q9C0B1 whole entry, the tested form may be a part): as the sequence (Q9C0B1 whole entry, looked up, the tested form may be a part) above

[30] = Cmax in Sprague-Dawley rat at 2 mg/kg, iv measured for 1 to 1440 mins by LC-MS/MS analysis; assay type: ADME, organism-based; conditions: in vivo
HUVEC [31] = assay: Effect on c-Myc level in HUVEC cells upto 10 uM incubated for 48 hrs by Western blot analysis; assay type: functional, cell-based; conditions: Homo sapiens
RNA demethylase ALKBH5 [32] = molecular target: T2, RNA demethylase ALKBH5; assay: Binding affinity to biotinylated ALKBH5 (66 to 292 residues)(unknown origin) expressed in Escherichia coli BL21(DE3) assessed as equilibrium dissociation constant by BLI assay
Target sequence in this assay (Q6P6C2 whole entry, the tested form may be a part): as the sequence (Q6P6C2 whole entry, the tested form may be a part) above

MV4-11 [33] = assay: Induction of apoptosis in human MV4-11 cells assessed as late apoptosis cells at 5 uM incubated for 48 hrs by Annexin V-FITC/PI staining based flow cytometry (reference value: 7.17 %); assay type: functional
[34] = Toxicity in nude mouse xenografted with human MV4-11 cells assessed as spleen weight change at 10 to 40 mg/kg, ip treated every day for 14 days; assay type: organism-based; conditions: in vivo, 336 h, dose 10-40 mg/kg, time 14 day
[35] = Metabolic stability in human liver microsomes assessed as half life measured upto 240 mins by LC-MS/MS analysis; assay type: ADME, Microsome

## O=C(OCc1ccc(C(F)(F)F)cc1)c1ccc(-c2cc3ncc(C(=O)c4c(O)ccc([N+](=O)[O-])c4O)cn3n2)cc1
MOLM-13 [1]
  viability at 5 µM: 77.2%
[2]
  Activity: inactive
RNA demethylase ALKBH5 [3]
  IC50: 4.89 µM
MV4-11 [4]
  Activity: 2.59%
MOLM-13 [5]
  Activity: 2.91%
[6]
  Activity: Non-Toxic
[7]
  Activity: Non-Toxic
[8]
  bioavailability: 17.3%
[9]
  AUC(0-inf): 5820 ng·h/mL
HEK293 [10]
  IC50: 97.4 µM
[11]
  Vz/F: 0.2636 L/kg
MV4-11 [12]
  Activity: Active
MV4-11 [13]
  Activity: Active
[14]
  microsomal CLint: 3.2 µL/min/mg
RNA demethylase ALKBH5 [15]
  IC50: 4.46 µM
HUVEC [16]
  Activity: inactive
MOLM-13 [17]
  Activity: 16.5%
[18]
  Tmax: 0.5 h
[19]
  Activity: Non-Toxic
[20]
  half-life: 4.18 h
MV4-11 [21]
  Activity: Active
MOLM-13 [22]
  Activity: 3.37%
[23]
  Activity: Non-Toxic
[24]
  Activity: Non-Toxic
RNA demethylase ALKBH5 [25]
  inhibition: Active
MOLM-13 [26]
  Activity: 31.5%
HEK293 [27]
  Activity: inactive
MOLM-13 [28]
  Activity: 4.14%
[29]
  IC50: > 200 µM
[30]
  Cmax: 13400 ng/mL
HUVEC [31]
  Activity: inactive
RNA demethylase ALKBH5 [32]
  Kd: 6.62 µM
MV4-11 [33]
  Activity: 36%
[34]
  Activity: Non-Toxic
[35]
  half-life: 7.17 h
